# Test results reported in patent US20210145964A1, “STROMA-TARGETING TREATMENT FOR PATIENTS WITH ELEVATED ADAM12 LEVELS” (Academisch Medisch Centrum, priority 2019, published 2021).
# System: metastatic adenocarcinoma of the pancreas
# Assay: MPACT phase III trial, overall survival by plasma ADAM12 group
# Conditions: poorest-outcome group: ADAM12 became detectable or increased at cycle 2
# Experimental: In the MPACT trial cohort, collection of plasma samples for biomarker development was optional and separate written consent was obtained for sample collection and biomarker analysis. […] All patients provided informed consent. […] Patients were randomized 1:1 (stratified by performance status, presence of liver metastases, and region) to receive nab-paclitaxel 125 mg/m^2 plus gemcitabine 1,000 mg/m^2 on days 1, 8, and 15 every 28 days or gemcitabine alone 1,000 mg/m^2 on days 1, 8, 15, 22, 29, 36, and 43 in 56 days (cycle 1) and then on days 1, 8, and 15 every 28 days (cycle≥2). Treatment continued until disease progression or unacceptable toxicity.
# MPACT trial blood samples were collected in EDTA tubes to chelate calcium and prevent blood clotting, and storage at −80° C. until analysis. To allow the analysis of these plasma samples using the ADAM12 DuoSet ELISA, recalcification was required. […]
# For the MPACT cohort, baseline ADAM12 values were categorized into undetectable (0) and detectable (>0). The fold change of ADAM12 at cycle 2, day 1 (C2D1) from baseline (cycle 1, day 1; C1D1) was calculated by the results at C2D1 divided by the value at C1D1. […] All eligible samples were measured and no power calculation was performed. Overall survival was analyzed using Kaplan-Meier method and log-rank test. […]
smiles,measurement,value
Nc1ccn([C@@H]2O[C@H](CO)[C@@H](O)C2(F)F)c(=O)n1 [gemcitabine],overall survival,6.9 months
